Measured values published in ChEMBL document CHEMBL4651402, “Screening of ~5500 FDA-approved drugs and clinical candidates for anti-SARS-CoV-2 activity” (2021).

Tested on: SARS-CoV-2
Assay: microbe, parasite or virus in culture
Conditions: Severe acute respiratory syndrome coronavirus 2, Vero C1008, 48 h

| Compound | IC50 [µM] | IC50 (read-out: pIC50 (converted)) [µM] |
| --- | --- | --- |
| O=C(O[C@@H]1Cc2c(O)cc(O)cc2O[C@@H]1c1cc(O)c(=O)c2c(O)c(O)cc([C@H]3Oc4cc(O)cc(O)c4C[C@H]3OC(=O)c3cc(O)c(O)c(O)c3)c2c1)c1cc(O)c(O)c(O)c1 [THEAFLAVIN DIGALLATE] | > 20 | > 20 |
| O=C(O[C@@H]1Cc2c(O)cc(O)cc2O[C@@H]1c1cc(O)c(=O)c2c(O)c(O)cc([C@H]3Oc4cc(O)cc(O)c4C[C@H]3O)c2c1)c1cc(O)c(O)c(O)c1 [THEAFLAVIN MONOGALLATES] | > 20 | > 20 |
| O=c1c(O)cc([C@H]2Oc3cc(O)cc(O)c3C[C@H]2O)cc2c([C@H]3Oc4cc(O)cc(O)c4C[C@H]3O)cc(O)c(O)c12 [THEAFLAVIN] | > 20 | > 20 |
| CN1CCC(N(Cc2cccs2)c2ccccc2)CC1 [THENALIDINE] | > 20 | > 20 |
| Cn1cnc2c1c(=O)[nH]c(=O)n2C [THEOBROMINE] | > 20 | > 20 |
| Cn1c(=O)c2c(ncn2CCOC(=O)C(C)(C)Oc2ccc(Cl)cc2)n(C)c1=O [THEOFIBRATE] | > 20 | > 20 |
| Cn1c(=O)c2nc[nH]c2n(C)c1=O [THEOPHYLLINE] | > 20 | > 20 |
| c1ccc2[nH]c(-c3cscn3)nc2c1 [THIABENDAZOLE] | > 20 | > 20 |
| C=CCC1(C2C=CCCC2)C(=O)NC(=S)NC1=O (stereo not drawn) [THIALBARBITAL] | > 20 | > 20 |
| Cc1ncc(C[n+]2csc(CCO)c2C)c(N)n1 [THIAMINE ION] | > 20 | > 20 |
| Cn1cnc([N+](=O)[O-])c1Sc1nc(N)nc2[nH]cnc12 [THIAMIPRINE] | > 20 | > 20 |
| CS(=O)(=O)c1ccc([C@@H](O)[C@@H](CO)NC(=O)C(Cl)Cl)cc1 [THIAMPHENICOL] | > 20 | > 20 |
| C=CCC1(C(C)CCC)C(=O)NC(=S)NC1=O (stereo not drawn) [THIAMYLAL] | > 20 | > 20 |
| CN(C)CCN1C(=O)CC(c2ccccc2)Sc2ccccc21 (stereo not drawn) [THIAZESIM] | > 20 | > 20 |
| CCSc1ccc2c(c1)N(CCCN1CCN(C)CC1)c1ccccc1S2 [THIETHYLPERAZINE] | > 20 | > 20 |
| COc1c(O[C@@H]2O[C@H](CO)[C@@H](O)[C@H](O)[C@H]2O)cc2c(c1OC)-c1ccc(SC)c(=O)cc1[C@@H](NC(C)=O)CC2 [THIOCOLCHICOSIDE] | > 20 | > 20 |
| NC(=O)CCCCC1CCSS1 (stereo not drawn) [THIOCTIC ACID AMIDE] | > 20 | > 20 |
| Nc1nc2[nH]cnc2c(=S)[nH]1 [THIOGUANINE] | > 20 | > 20 |
| Nc1nc(=S)c2ncn([C@@H]3O[C@H](CO)[C@@H](O)[C@H]3O)c2[nH]1 [THIOGUANOSINE] | > 20 | > 20 |
| CCCC(C)C1(CC)C(=O)NC(=S)NC1=O (stereo not drawn) [THIOPENTAL] | > 20 | > 20 |
| S=C(NC1CCCCC1)N1CCC(c2cnc[nH]2)CC1 [THIOPERAMIDE] | > 20 | > 20 |
| O=C(O)[C@@H]1CSCN1 [THIOPROLINE] | > 20 | > 20 |
| CC(=O)OCCN1CCN(CCCN2c3ccccc3Sc3ccc(Cl)cc32)CC1 [THIOPROPAZATE] | > 20 | > 20 |
| O=C(O)CNC(=O)C(CS)Cc1ccccc1 (stereo not drawn) [THIORPHAN] | > 20 | > 20 |
| O=C(O)c1ccccc1S [THIOSALICYLIC ACID] | > 20 | > 20 |
| CNc1ccc(-c2ccc3cc(OC[C@H](O)CF)ccc3n2)cn1 [THK-5351] | > 20 | > 20 |
| CCCCCCCCCCCCCCCC[N+](C)(C)CCN(Cc1ccc(OC)cc1)c1ncccn1 [THONZONIUM] | > 20 | > 20 |

| Compound | IC50 [µM] | IC50 (read-out: pIC50 (converted)) [µM] |
| --- | --- | --- |
| COc1ccc(CN(CCN(C)C)c2ncccn2)cc1 [THONZYLAMINE] | > 20 | > 20 |
| C[C@@H](O)[C@H](N)C(=O)O [THREONINE] | > 20 | > 20 |
| Cc1ccc(C(C)C)c(O)c1 [THYMOL] | > 20 | > 20 |
| CC1=CC(=O)C(C(C)C)=CC1=O [THYMOQUINONE] | > 20 | > 20 |
| Cc1ccsc1C(=CCCN1CCC[C@@H](C(=O)O)C1)c1sccc1C [TIAGABINE] | > 20 | > 20 |
| Cc1csc(Cl)c1NC1=NCCN1 [TIAMENIDINE] | > 20 | > 20 |
| CCN(CC)CCNC(=O)c1cc(S(C)(=O)=O)ccc1OC [TIAPRIDE] | > 20 | > 20 |
| CC(C(=O)O)c1ccc(C(=O)c2ccccc2)s1 (stereo not drawn) [TIAPROFENIC ACID] | > 20 | > 20 |
| O=C(Cn1c(=O)sc2ccc(Cl)cc21)N1CCN(CCO)CC1 [TIARAMIDE] | > 20 | > 20 |
| CCOc1cc2cc(C(=O)O)sc2cc1OCC [TIBENELAST] | > 20 | > 20 |
| CCCSc1nc(N[C@@H]2C[C@H]2c2ccc(F)c(F)c2)c2nnn([C@@H]3C[C@H](OCCO)[C@@H](O)[C@H]3O)c2n1 [TICAGRELOR] | > 20 | > 20 |
| COc1cc(N)c(Cl)cc1C(=O)N[C@@H]1CCNC[C@@H]1OC [TICALOPRIDE] | > 20 | > 20 |
| O=c1[nH]sc2cc(Cl)ccc12 [TICLATONE] | > 20 | > 20 |
| Clc1ccccc1CN1CCc2sccc2C1 [TICLOPIDINE] | > 20 | > 20 |
| O=c1sn(-c2cccc3ccccc23)c(=O)n1Cc1ccccc1 [TIDEGLUSIB] | > 20 | > 20 |
| CN(C)c1cc(NC(=O)CNC(C)(C)C)c(O)c2c1C[C@H]1C[C@H]3[C@H](N(C)C)C(O)=C(C(N)=O)C(=O)[C@@]3(O)C(O)=C1C2=O [TIGECYCLINE] | > 20 | > 20 |
| CNC(=N)NCCC[C@H](N)C(=O)O [TILARGININE] | > 20 | > 20 |
| Cc1nc(C2CCCCC2)c(-c2ccc(S(N)(=O)=O)c(F)c2)o1 [TILMACOXIB] | > 20 | > 20 |
| O=C(O)Cc1sc2nc3ccccc3n2c1-c1ccc(Cl)cc1 [TILOMISOLE] | > 20 | > 20 |
| CCN(CC)CCOc1ccc2c(c1)C(=O)c1cc(OCCN(CC)CC)ccc1-2 [TILORONE] | > 20 | > 20 |
| Cc1c(Cc2ccc3ccccc3n2)c2cc(F)ccc2n1CC(=O)O [TIMAPIPRANT] | > 20 | > 20 |
| COc1cc(C(=O)C(=O)N(C)[C@@H](Cc2ccc(Cl)cc2)C(=O)N(Cc2ccccc2)C(CCc2ccncc2)CCc2ccncc2)cc(OC)c1OC [TIMCODAR] | > 20 | > 20 |
| Cc1cc(/N=C(\Nc2nccs2)NC2CCCCC2)c2ccccc2n1 [TIMEGADINE] | > 20 | > 20 |
| O=C(CCCN1CCC(n2c(=S)[nH]c3ccccc32)CC1)c1ccc(F)cc1 [TIMIPERONE] | > 20 | > 20 |
| CC(C)(C)NC[C@H](O)COc1nsnc1N1CCOCC1 [TIMOLOL] | > 20 | > 20 |
| c1ccc2c(SC3=NCCN3)c[nH]c2c1 [TINAZOLINE] | > 20 | > 20 |
| CCS(=O)(=O)CCn1c([N+](=O)[O-])cnc1C [TINIDAZOLE] | > 20 | > 20 |
